Among the data in PubChem BioAssay (NCI) are TGI and GI50 values, retold here.

SMILES strings stand for the structures. “And” between values parts separate entries of the source, which are not always exact repeats. Equal values may be shown once.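 48-hour exposure; five concentrations; linearly interpolated endpoints. GI50: concentration for 50% inhibition of growth. TGI marks complete inhibition of growth.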

Test systems include NCI-H23 lung; K-562 leukemia; OVCAR-8 ovarian; HCC-2998 colon; 786-0 renal; SF-539 CNS; SR leukemia; SW-620 colon; UACC-62 melanoma; OVCAR-3 ovarian.
Holding throughout (test): growth of human tumour cells (NCI), 48 h

`COc1cc2ccccc2c2cc([N+](=O)[O-])oc12`: the TGI in the experiment on NCI-H23 lung was 4.18 µM; in the experiment on K-562 leukemia it was more than 38.9 µM; in the experiment on OVCAR-8 ovarian, more than 71.8 µM; in the experiment with HCC-2998 colon, 1.09 µM; in the experiment on 786-0 renal, 7.49 µM; in the experiment with SF-539 CNS, 7.75 µM. Besides, the TGI in the experiment on SR leukemia was 1.92 µM; in the experiment on SW-620 colon, 15 µM; in the experiment on UACC-62 melanoma, 2.36 µM; with OVCAR-3 ovarian, 5.41 µM. Besides, in the experiment with HCC-2998 colon, the GI50 was 0.294 µM.

In the case of `Cc1oc2nc[nH]c(=O)c2c1C(=O)/C=C/c1ccc(Cl)cc1`, the GI50 with NCI-H23 lung was 2.51 µM; with K-562 leukemia it was 1.82 µM; in the experiment with OVCAR-8 ovarian, 2.67 µM; in the experiment with HCC-2998 colon it was 1.79 µM; with 786-0 renal, 3.02 µM; in the experiment with SF-539 CNS, 2.37 µM. In addition, the GI50 in the experiment with SR leukemia is 1.51 µM; in the experiment on SW-620 colon, 2.53 µM; in the experiment on UACC-62 melanoma, 1.64 µM; with OVCAR-3 ovarian it was 2.3 µM. In addition, the TGI with NCI-H23 lung was 15.3 µM; in the experiment with K-562 leukemia, 11.3 µM; in the experiment on OVCAR-8 ovarian it was 31.9 µM; in the experiment on HCC-2998 colon, 3.65 µM; in the experiment with 786-0 renal, 10.3 µM; in the experiment on SF-539 CNS, 6.71 µM. Besides, the TGI came to 6.3 µM in the experiment on SR leukemia, 7.19 µM in the experiment with SW-620 colon, 5.37 µM with UACC-62 melanoma and 7.83 µM with OVCAR-3 ovarian.

For `CC(C)N(C(=O)C12C3C4C5C3C1(C(=O)N(C(C)C)C(C)C)C5(C#N)C42)C(C)C` (stereo unspecified), the TGI in the experiment with NCI-H23 lung was more than 100 µM; in the experiment on K-562 leukemia, 73 µM; with OVCAR-8 ovarian, more than 100 µM; in the experiment on HCC-2998 colon, more than 100 µM; with 786-0 renal it was more than 100 µM; in the experiment with SF-539 CNS, more than 100 µM. Further, the TGI in the experiment on SR leukemia was 66.4 µM; with SW-620 colon it was more than 100 µM; in the experiment with UACC-62 melanoma, more than 100 µM; in the experiment on OVCAR-3 ovarian it was more than 100 µM.

Take `N#CNC(N)=NCCO`: the TGI with NCI-H23 lung, in the experiment on K-562 leukemia, with OVCAR-8 ovarian, in the experiment with HCC-2998 colon, in the experiment on 786-0 renal and in the experiment with SF-539 CNS was more than 100 µM each time. The TGI with SR leukemia was 86.2 µM; in the experiment on SW-620 colon it was 35.9 µM; with UACC-62 melanoma it was more than 100 µM; with OVCAR-3 ovarian it was more than 100 µM.

As to `CC(=O)OCCOCNC(=S)N/N=C/c1ccc2ccccc2n1`, the TGI in the experiment on NCI-H23 lung, with K-562 leukemia, in the experiment with OVCAR-8 ovarian, in the experiment with HCC-2998 colon, with 786-0 renal and in the experiment on SF-539 CNS was more than 100 µM throughout. Further, the TGI in the experiment on SR leukemia was more than 100 µM; in the experiment with SW-620 colon, more than 100 µM; in the experiment on UACC-62 melanoma, 47.6 µM; in the experiment with OVCAR-3 ovarian it was more than 100 µM.

Take `CNC(=S)N/N=C1\CC(c2ccccc2)Oc2ccccc21` (stereo unspecified): the TGI in the experiment on NCI-H23 lung, in the experiment on K-562 leukemia, in the experiment on OVCAR-8 ovarian, with HCC-2998 colon, in the experiment with 786-0 renal and in the experiment on SF-539 CNS was more than 100 µM in each case. Moreover, the TGI with SR leukemia, in the experiment on SW-620 colon, with UACC-62 melanoma and with OVCAR-3 ovarian was more than 100 µM each time.

With `Clc1ccccc1C(n1ncc2ccccc21)n1ncc2ccccc21`, the TGI with NCI-H23 lung, with K-562 leukemia, in the experiment on OVCAR-8 ovarian, with HCC-2998 colon, with 786-0 renal and with SF-539 CNS was more than 100 µM throughout. In addition, the TGI in the experiment with SR leukemia was more than 100 µM; in the experiment on SW-620 colon, more than 100 µM; in the experiment on UACC-62 melanoma it was more than 10 µM; in the experiment with OVCAR-3 ovarian, more than 100 µM.

Take `[C-]#[O+].[Cl][Sn]([Cl])[Cl].[Cl][Sn]([Cl])[Cl].[Pt].c1ccc([PH+](c2ccccc2)c2ccccc2)cc1.c1ccc([PH+](c2ccccc2)c2ccccc2)cc1`: the GI50 with NCI-H23 lung is 13.7 µM; with K-562 leukemia, 34.8 µM; with OVCAR-8 ovarian, 22.5 µM; with HCC-2998 colon, 60.7 µM; in the experiment with 786-0 renal it was 53.5 µM; in the experiment on SF-539 CNS, 92.3 µM. Further, the GI50 in the experiment with SR leukemia is 37.7 µM; in the experiment on SW-620 colon, 35.1 µM; with UACC-62 melanoma, 27.7 µM; in the experiment with OVCAR-3 ovarian, 62.1 µM. Moreover, the TGI was 37 µM with NCI-H23 lung; more than 100 µM in the experiment on K-562 leukemia; 65.7 µM in the experiment on OVCAR-8 ovarian; more than 100 µM in the experiment on HCC-2998 colon; more than 100 µM in the experiment with 786-0 renal; more than 100 µM in the experiment on SF-539 CNS. Besides, the TGI in the experiment with SR leukemia, in the experiment with SW-620 colon, in the experiment on UACC-62 melanoma and in the experiment with OVCAR-3 ovarian was more than 100 µM each time.

Take `O=C1c2ccccc2NC(c2cc(Cl)cc(Cl)c2O)N1CCc1ccccn1` (stereo unspecified): the TGI with NCI-H23 lung, with K-562 leukemia, with OVCAR-8 ovarian, in the experiment on HCC-2998 colon, with 786-0 renal and with SF-539 CNS was more than 100 µM throughout. The TGI in the experiment with SR leukemia, in the experiment with SW-620 colon, in the experiment with UACC-62 melanoma and with OVCAR-3 ovarian was more than 100 µM each time.

In the case of `NC(C/[N+]([O-])=N/O)C(=O)O` (stereo unspecified), the GI50 with NCI-H23 lung was 3.85 µM and 12.6 µM and 1.61 µM; with K-562 leukemia, 29.5 µM and 11.2 µM and 15 µM; in the experiment on 786-0 renal, 1.16 µM and 9.72 µM and 4.15 µM; in the experiment on SW-620 colon, 9.22 µM and 19.7 µM and 15.1 µM; in the experiment on UACC-62 melanoma, 6.05 µM and 7.49 µM and 3.12 µM; in the experiment on OVCAR-3 ovarian, 20.1 µM and 44.5 µM and 13 µM. In addition, the TGI is > 100 µM and 154 µM with NCI-H23 lung; more than 419 µM in the experiment with K-562 leukemia; > 100 µM and 459 µM in the experiment on OVCAR-8 ovarian; > 100 µM and 302 µM with HCC-2998 colon; more than 500 µM in the experiment on 786-0 renal; > 100 µM and 366 µM in the experiment with SF-539 CNS. The TGI with SR leukemia was more than 228 µM; with SW-620 colon, > 100 µM and 417 µM; with UACC-62 melanoma, > 100 µM and 81.9 µM; in the experiment on OVCAR-3 ovarian, > 100 µM and 342 µM.

Turning to `O=C(O)C1CCc2nnc(-c3ccccc3)n21` (stereo unspecified), the TGI in the experiment on K-562 leukemia, in the experiment on OVCAR-8 ovarian, in the experiment with HCC-2998 colon, with 786-0 renal, in the experiment on SF-539 CNS and in the experiment with SR leukemia was more than 100 µM throughout. For the same compound, the TGI in the experiment with SW-620 colon, with UACC-62 melanoma and in the experiment on OVCAR-3 ovarian was more than 100 µM throughout.
